Data reported in patent publication US9051311B2, “Sulfamide sodium channel inhibitors” (AMGEN INC., priority 2012, dated 2015).
Counter-ions that a name gives are not always drawn.

What was measured:
[1] = target: T1, Nav 1.5 (Homo sapiens (Human), UniProt Q14524); test: Nav 1.5 IonWorks Quattro (IWQ) in vitro assay, population patch-clamp; conditions: read-out: Nav 1.5 (IWQ) IC50; 293 cells stably transfected with Nav 1.5; block at 26th pulse to −20 mV;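 note: HEK293 cells stably expressing Nav1.5, sodium current at the 26th of 26 pulses to −20 mV (150 ms, 5 Hz) after compound versus before, leak-corrected, 3–8 min exposure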
Experimental: (§1) Nav 1.7 and Nav 1.5 Ion Works Quattro (IWQ) In Vitro Assays
(§2) 293 cells stably transfected with either Nav 1.7 or with Nav 1.5 were recorded in population patch-clamp mode with the IonWorks® Quattro automated electrophysiology system in accordance with the manufacturer's specifications (Molecular Devices, LLC, Sunnyvale, Calif.). Sodium channel currents were measured in response to a train of depolarizations that induced successively greater inactivation.
(§3) Cells were held at −110 mV for three seconds (Nav 1.7) or half a second (Nav 1.5) from a holding voltage of −15 mV, then put through a series of 26 pulses of 150 msec duration to −20 mV at a frequency of 5 Hz. Cells were then left unclamped for a period of 3 to 8 minutes while a single concentration of test compound was added. Cells were then reclamped and put through the same voltage protocol. Current at the end of the 26th pulse to −20 mV was subtracted from the peak current evoked by the 26th pulse to −20 mV to correct for leak current. Percent block was calculated for each concentration in duplicate, and IC50 curves were fitted to percent block as a function of concentration.

[2] = target: T2, Nav 1.7 (Homo sapiens (Human), UniProt Q15858); test: Nav 1.7 IonWorks Quattro (IWQ) in vitro assay, population patch-clamp; format: cell-based; conditions: 293 cells stably transfected with Nav 1.7; block at 26th pulse to −20 mV;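 note: cells held at −110 mV for 3 s, then 26 pulses of 150 ms at 5 Hz, leak-corrected peak current, percent block measured before and after compound, 3–8 min exposure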
Experimental: as §1, §2, §3

[3] = target: T2, Nav 1.7; test: Nav 1.7 in vitro PatchExpress (PX) assay, whole cell voltage clamp; format: cell-based; conditions: 293 cells stably transfected with human Nav1.7; partially inactivated state (20 to 50% inactivation)
Experimental: Nav 1.7 In Vitro PatchExpress (PX) Assay
293 cells stably transfected with human Nav1.7 were recorded in whole cell voltage clamp mode with the PatchXpress automated electrophysiology system (Molecular Devices, LLC, Sunnyvale, Calif.). Compound effects were measured on a partially inactivated state of the sodium channel. Cells were clamped to a holding potential yielding 20 to 50% inactivation. To elicit sodium current, channels were activated by pulsing to −10 mV for 20 msec. This voltage protocol was repeated at a rate of 0.1 Hz throughout the experiment. A single concentration of test compound was applied to cells for a duration of 3 minutes. Peak sodium current was measured at the end of the compound addition period to determine percent inhibition.

[4] = target: T1, Nav 1.5; test: cell-based
Experimental: as §1, §2, §3

T2 sequence (Q15858 whole entry): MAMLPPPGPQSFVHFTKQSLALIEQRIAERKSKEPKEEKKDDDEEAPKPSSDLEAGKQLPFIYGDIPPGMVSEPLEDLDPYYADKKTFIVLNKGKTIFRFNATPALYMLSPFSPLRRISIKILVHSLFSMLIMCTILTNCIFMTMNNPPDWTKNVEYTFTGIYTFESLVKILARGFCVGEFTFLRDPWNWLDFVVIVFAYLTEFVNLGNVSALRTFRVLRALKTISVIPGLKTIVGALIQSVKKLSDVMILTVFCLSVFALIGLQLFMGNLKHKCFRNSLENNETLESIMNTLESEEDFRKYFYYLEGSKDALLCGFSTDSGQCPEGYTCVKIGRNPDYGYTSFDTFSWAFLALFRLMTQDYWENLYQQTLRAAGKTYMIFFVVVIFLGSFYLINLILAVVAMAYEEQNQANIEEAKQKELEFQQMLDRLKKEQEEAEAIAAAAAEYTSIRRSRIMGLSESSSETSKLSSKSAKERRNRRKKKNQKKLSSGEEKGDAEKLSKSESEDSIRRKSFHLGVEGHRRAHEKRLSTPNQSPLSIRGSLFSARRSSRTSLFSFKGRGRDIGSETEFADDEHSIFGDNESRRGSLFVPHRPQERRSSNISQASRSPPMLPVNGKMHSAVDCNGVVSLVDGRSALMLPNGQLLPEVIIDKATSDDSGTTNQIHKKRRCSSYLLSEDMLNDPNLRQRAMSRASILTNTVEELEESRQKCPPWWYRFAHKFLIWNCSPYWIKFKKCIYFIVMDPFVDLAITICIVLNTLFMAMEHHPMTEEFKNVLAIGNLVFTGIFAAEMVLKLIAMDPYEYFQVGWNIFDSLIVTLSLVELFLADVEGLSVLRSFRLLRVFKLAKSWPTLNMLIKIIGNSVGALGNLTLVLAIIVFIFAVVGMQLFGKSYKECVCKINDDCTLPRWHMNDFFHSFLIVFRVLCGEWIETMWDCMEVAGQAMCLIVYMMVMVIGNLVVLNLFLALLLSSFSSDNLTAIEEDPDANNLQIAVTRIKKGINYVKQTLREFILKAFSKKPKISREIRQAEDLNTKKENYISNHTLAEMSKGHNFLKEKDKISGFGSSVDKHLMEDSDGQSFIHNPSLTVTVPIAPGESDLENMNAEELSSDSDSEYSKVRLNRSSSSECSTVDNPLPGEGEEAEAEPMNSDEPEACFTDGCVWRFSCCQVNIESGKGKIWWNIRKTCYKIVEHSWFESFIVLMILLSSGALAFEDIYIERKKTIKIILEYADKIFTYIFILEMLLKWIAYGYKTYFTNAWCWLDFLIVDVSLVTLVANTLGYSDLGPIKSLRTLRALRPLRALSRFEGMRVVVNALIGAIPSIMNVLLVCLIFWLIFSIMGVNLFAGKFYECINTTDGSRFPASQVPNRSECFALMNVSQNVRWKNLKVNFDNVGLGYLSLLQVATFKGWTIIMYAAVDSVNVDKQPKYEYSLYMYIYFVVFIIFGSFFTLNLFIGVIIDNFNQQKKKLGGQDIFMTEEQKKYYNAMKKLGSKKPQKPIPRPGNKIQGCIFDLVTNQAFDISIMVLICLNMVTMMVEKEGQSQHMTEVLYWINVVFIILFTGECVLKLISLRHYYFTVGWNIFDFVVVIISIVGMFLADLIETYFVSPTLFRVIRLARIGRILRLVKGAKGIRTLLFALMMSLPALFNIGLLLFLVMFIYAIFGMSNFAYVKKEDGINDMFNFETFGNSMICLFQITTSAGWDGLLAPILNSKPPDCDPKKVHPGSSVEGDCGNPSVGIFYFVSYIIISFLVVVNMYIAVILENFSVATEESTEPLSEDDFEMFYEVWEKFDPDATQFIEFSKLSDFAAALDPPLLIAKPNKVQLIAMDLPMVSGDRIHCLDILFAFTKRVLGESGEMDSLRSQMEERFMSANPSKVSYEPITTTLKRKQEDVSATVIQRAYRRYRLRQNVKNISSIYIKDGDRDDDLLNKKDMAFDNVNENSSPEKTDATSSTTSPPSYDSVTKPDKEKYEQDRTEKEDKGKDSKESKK
T1 sequence (Q14524 whole entry): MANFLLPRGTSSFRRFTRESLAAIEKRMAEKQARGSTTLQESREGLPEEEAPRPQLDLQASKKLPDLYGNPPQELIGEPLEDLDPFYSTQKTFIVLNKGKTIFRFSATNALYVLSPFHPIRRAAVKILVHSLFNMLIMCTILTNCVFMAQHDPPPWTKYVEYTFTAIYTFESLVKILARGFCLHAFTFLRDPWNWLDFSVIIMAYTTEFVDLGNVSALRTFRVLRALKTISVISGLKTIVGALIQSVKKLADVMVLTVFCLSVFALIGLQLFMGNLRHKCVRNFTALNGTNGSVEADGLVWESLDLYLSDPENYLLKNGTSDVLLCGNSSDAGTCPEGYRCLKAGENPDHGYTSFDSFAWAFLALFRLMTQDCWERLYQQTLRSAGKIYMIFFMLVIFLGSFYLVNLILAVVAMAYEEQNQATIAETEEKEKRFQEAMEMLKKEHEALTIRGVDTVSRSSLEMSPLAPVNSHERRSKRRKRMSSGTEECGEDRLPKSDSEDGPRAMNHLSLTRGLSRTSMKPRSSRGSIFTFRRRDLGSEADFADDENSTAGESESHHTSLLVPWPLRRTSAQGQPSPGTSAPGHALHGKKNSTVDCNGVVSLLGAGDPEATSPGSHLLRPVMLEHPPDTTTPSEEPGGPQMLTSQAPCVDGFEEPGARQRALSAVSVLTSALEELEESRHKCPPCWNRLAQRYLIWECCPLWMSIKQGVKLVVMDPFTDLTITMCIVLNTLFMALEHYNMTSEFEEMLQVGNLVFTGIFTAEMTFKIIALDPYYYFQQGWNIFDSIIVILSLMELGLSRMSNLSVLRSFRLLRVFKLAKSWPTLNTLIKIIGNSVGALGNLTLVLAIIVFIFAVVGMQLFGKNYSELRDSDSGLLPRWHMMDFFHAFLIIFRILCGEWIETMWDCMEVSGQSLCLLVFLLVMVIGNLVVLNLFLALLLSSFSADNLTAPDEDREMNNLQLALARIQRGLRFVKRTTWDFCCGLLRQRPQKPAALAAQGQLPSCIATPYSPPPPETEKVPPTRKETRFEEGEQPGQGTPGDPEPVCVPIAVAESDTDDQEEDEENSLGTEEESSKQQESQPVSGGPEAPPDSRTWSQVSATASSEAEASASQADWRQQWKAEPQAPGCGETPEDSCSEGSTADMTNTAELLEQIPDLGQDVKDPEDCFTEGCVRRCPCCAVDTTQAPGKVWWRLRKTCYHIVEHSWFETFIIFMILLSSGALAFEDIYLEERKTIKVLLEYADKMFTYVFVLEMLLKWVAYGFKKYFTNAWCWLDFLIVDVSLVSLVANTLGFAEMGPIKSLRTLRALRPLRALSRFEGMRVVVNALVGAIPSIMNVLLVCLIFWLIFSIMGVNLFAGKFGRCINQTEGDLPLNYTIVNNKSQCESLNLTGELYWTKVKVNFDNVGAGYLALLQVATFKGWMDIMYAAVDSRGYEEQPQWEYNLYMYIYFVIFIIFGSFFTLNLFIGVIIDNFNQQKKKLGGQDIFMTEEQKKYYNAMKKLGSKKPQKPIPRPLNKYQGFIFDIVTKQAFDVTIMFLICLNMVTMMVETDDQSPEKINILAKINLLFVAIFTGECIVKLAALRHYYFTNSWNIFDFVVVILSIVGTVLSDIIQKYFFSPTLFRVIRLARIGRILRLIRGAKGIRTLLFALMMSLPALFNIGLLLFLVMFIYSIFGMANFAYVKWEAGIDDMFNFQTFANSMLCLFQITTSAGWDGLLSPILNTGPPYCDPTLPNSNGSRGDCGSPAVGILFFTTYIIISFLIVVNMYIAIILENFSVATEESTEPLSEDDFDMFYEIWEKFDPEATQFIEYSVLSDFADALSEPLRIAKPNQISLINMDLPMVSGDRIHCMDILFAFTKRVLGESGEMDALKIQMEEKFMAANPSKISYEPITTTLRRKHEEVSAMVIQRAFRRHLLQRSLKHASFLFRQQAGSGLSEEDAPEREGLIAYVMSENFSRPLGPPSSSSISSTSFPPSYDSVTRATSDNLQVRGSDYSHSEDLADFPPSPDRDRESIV

Row | Structure (SMILES) | IC50 [1] [µM] | IC50 [2] [µM] | IC50 [3] [µM] | IC50 [4] [µM]
1 | CC(C)(C)OC(=O)N1CC=C(c2cc(C(F)(F)F)ccc2-c2cccc3c2CCN(S(=O)(=O)Nc2ncns2)C3)CC1 [Example 5, tert-Butyl 4-(2-(2-(N-(1,2,4-thiadiazol-5-yl)sulfamoyl)-1,2,3,4-tetrahydroisoquinolin-5-yl)-5-(trifluoromethyl)phenyl)-5,6-dihydropyridine-1(2H)-carboxylate] | 5.63 | 1.03 | 1.7 | 
2 | O=S(=O)(Nc1ncns1)N1CCc2c(cccc2-c2ccc(C(F)(F)F)cc2C2=CCNCC2)C1 [Example 6, 5-(2-(1,2,3,6-Tetrahydropyridin-4-yl)-4-(trifluoromethyl)phenyl)-N-(1,2,4-thiadiazol-5-yl)-3,4-dihydroisoquinoline-2(1H)-sulfonamide hydrochloride] | > 10 | 0.0221 | 0.03 | 
3 | O=S(=O)(Nc1ncns1)N1CCc2c(cccc2-c2ccc(Cl)cc2F)C1 [Example 11, 5-(4-Chloro-2-fluorophenyl)-N-(1,2,4-thiadiazol-5-yl)-3,4-dihydroisoquinoline-2(1H)-sulfonamide] | > 10 | 4.22 | 7.66 | 
4 | Cc1cn(-c2cc(C(F)(F)F)ccc2-c2cccc3c2CCN(S(=O)(=O)Nc2ncc(F)s2)C3)cn1 [Example 42, N-(5-fluorothiazol-2-yl)-5-(2-(4-methyl-1H-imidazol-1-yl)-4-(trifluoromethyl)phenyl)-3,4-dihydroisoquinoline-2(1H)-sulfonamide] |  | 0.228 | 1.34 | > 10
5 | Cc1cncn1-c1cc(C(F)(F)F)ccc1-c1cccc2c1CCN(S(=O)(=O)Nc1ncc(F)s1)C2 [Example 43, N-(5-Fluorothiazol-2-yl)-5-(2-(5-methyl-1H-imidazol-1-yl)-4-(trifluoromethyl)phenyl)-3,4-dihydroisoquinoline-2(1H)-sulfonamide] |  | 0.171 | 1.92 | > 10
6 | COc1cc(C(F)(F)F)ccc1-c1cccc2c1CCN(S(=O)(=O)Nc1ncns1)C2 [Example 44, 5-(2-Methoxy-4-(trifluoromethyl)phenyl)-N-(1,2,4-thiadiazol-5-yl)-3,4-dihydroisoquinoline-2(1H)-sulfonamide] |  | 0.135 | 0.26 | > 10
7 | COc1cc(C2CC2)ccc1-c1cccc2c1CCN(S(=O)(=O)Nc1ncns1)C2 [Example 45, 5-(4-Cyclopropyl-2-methoxyphenyl)-N-(1,2,4-thiadiazol-5-yl)-3,4-dihydroisoquinoline-2(1H)-sulfonamide] |  | 0.0675 | 0.87 | > 10
8 | COc1cc(C(F)(F)F)ccc1-c1nccc2c1CCN(S(=O)(=O)Nc1ncns1)C2 [Example 46, 5-(2-Methoxy-4-(trifluoromethyl)phenyl)-N-(1,2,4-thiadiazol-5-yl)-3,4-dihydro-2,6-naphthyridine-2(1H)-sulfonamide] |  | 0.019 | 0.94 | > 10
9 | COc1cc(C2CC2)ccc1-c1nccc2c1CCN(S(=O)(=O)Nc1ncns1)C2 [Example 47, 5-(4-Cyclopropyl-2-methoxyphenyl)-N-(1,2,4-thiadiazol-5-yl)-3,4-dihydro-2,6-naphthyridine-2(1H)-sulfonamide] |  | 0.059 | 0.56 | > 10
10 | Cn1nccc1-c1cc(C(F)(F)F)ccc1-c1cccc2c1CCN(S(=O)(=O)Nc1ncccn1)C2 [Example 49, 5-(2-(1-Methyl-1H-pyrazol-5-yl)-4-(trifluoromethyl)phenyl)-N-(pyrimidin-2-yl)-3,4-dihydroisoquinoline-2(1H)-sulfonamide] |  | 12.7 | 14.6 | > 10
11 | O=S(=O)(Nc1cnccn1)N1CCc2c(cccc2-c2ccc(C(F)(F)F)cc2C2=CCNCC2)C1 [Example 53, N-(Pyrazin-2-yl)-5-(2-(1,2,3,6-tetrahydropyridin-4-yl)-4-(trifluoromethyl)phenyl)-3,4-dihydroisoquinoline-2(1H)-sulfonamide hydrochloride] | > 10 | 10.5 |  | 
12 | O=S(=O)(Nc1ccncn1)N1CCc2c(cccc2-c2ccc(C(F)(F)F)cc2Br)C1 [Example 56, 5-(2-Bromo-4-(trifluoromethyl)phenyl)-N-(pyrimidin-4-yl)-3,4-dihydroisoquinoline-2(1H)-sulfonamide] |  | 38.9 | > 10 | > 10
13 | CC(C)(C)OC(=O)N1CCc2c(cccc2-c2cccc3c2CCN(S(=O)(=O)Nc2ncns2)C3)C1 [Example 58, tert-Butyl 2′-(N-(1,2,4-thiadiazol-5-yl)sulfamoyl)-1′,2′,3,3′,4,4′-hexahydro-[5,5′-biisoquinoline]-2(1H)-carboxylate] |  | 15.8 | 16.5 | > 10
14 | COc1cc(C(F)(F)F)ccc1-c1ncnc2c1CCN(S(=O)(=O)Nc1nccs1)C2 [Example 59, 4-(2-methoxy-4-(trifluoromethyl)phenyl)-N-(thiazol-2-yl)-5,6-dihydropyrido[3,4-d]pyrimidine-7(8H)-sulfonamide] |  | 0.087 | 1.05 | > 10
15 | COc1cc(C(F)(F)F)ccc1-c1ncnc2c1CCN(S(=O)(=O)Nc1ncns1)C2 [Example 61, 4-(2-methoxy-4-(trifluoromethyl)phenyl)-N-(1,2,4-thiadiazol-5-yl)-5,6-dihydropyrido[3,4-d]pyrimidine-7(8H)-sulfonamide] |  | 0.141 | 1.21 | > 10
